pIC50: −log10 of the molar value. Converted amounts (≈) assume the structure as drawn. Where two headings read alike, the source gives them in different places.
Columns and labels:
[1] = test system: M. mycetomatis genome strain MM55; test: CLSI M38-A2 based in vitro susceptibility screening (XTT or resazurin), growth at fixed concentration; assay type: cell-based, Madurella mycetomatis; conditions: Madurella mycetomatis; for Percent fungal survival at 100 µM: replicate 2, M. mycetomatis MM55, read-out: Percentage survival at 100um, 100 uM A (second replicate column)
[2] = test system: M. mycetomatis MM55; test: IC50 determination, 2-fold dilution series 16 to 0.03125 μM; assay type: cell-based, Madurella mycetomatis; conditions: for Drug static or cidal: M. mycetomatis; for IC90 / pIC50: Madurella mycetomatis
[3] = test system: ten different M. mycetomatis isolates; test: MIC / MIC50 determination (XTT) in ten M. mycetomatis isolates; assay type: cell-based, Madurella mycetomatis; conditions: Madurella mycetomatis
[4] = test system: M. mycetomatis isolate MM55; test: M. mycetomatis grain infection model in G. mellonella larvae, survival; assay type: in vivo, Galleria mellonella; set-up: In vivo efficacy, Larvae survival %: concentration or dose not given beside the values; conditions: G. mellonella larvae infected with M. mycetomatis
[5] = mean of three, M. mycetomatis MM55, read-out: Percentage survival at 25um, 25 uM mean
[6] = replicate A, M. mycetomatis MM55, read-out: Percentage survival at 25um, 25 um A
[7] = replicate B, M. mycetomatis MM55, read-out: Percentage survival at 25um, 25 uM B
[8] = replicate C, M. mycetomatis MM55, read-out: Percentage survival at 25um, 25 uM C
[9] = mean of three, M. mycetomatis MM55, read-out: Percentage survival at 100um, 100 uM mean
[10] = replicate 1, M. mycetomatis MM55, read-out: Percentage survival at 100um, 100 uM A (first replicate column)
[11] = replicate 3, M. mycetomatis MM55, read-out: Percentage survival at 100um, 100 uM A (third replicate column)
[12] = MM55, mean of replicates, read-out: IC90 mean
[13] = MM55, replicate 1, read-out: IC90 1 um
[14] = MM55, replicate 2, read-out: IC90 2 um
[15] = MM55, replicate 3, read-out: IC90 3 um
[16] = over the tested M. mycetomatis isolates, read-out: MIC50 mean
[17] = isolate CBS247.48, read-out: MIC CBS247.48
[18] = isolate MM55, read-out: MIC MM55
[19] = isolate ParijsAl1, read-out: MIC ParijsAl1
[20] = isolate Peru72012, read-out: MIC Peru72012
[21] = MM55, Table 2, M. mycetomatis MM55, read-out: IC50
[22] = MM55, mean of replicates, read-out: IC50 mean
[23] = MM55, replicate 1, read-out: IC50 1 um
[24] = MM55, replicate 2, read-out: IC50 2 um
[25] = MM55, replicate 3, read-out: IC50 3 um
[26] = median MIC over ten M. mycetomatis isolates, no asterisk, read-out: MIC50
[27] = isolate MM14, read-out: MIC MM14
[28] = isolate MM45, read-out: MIC MM45

IC90 [2, 12] [µM]	IC90 [2, 13] [µM]	IC90 [2, 14] [µM]	IC90 [2, 15] [µM]	MIC50 [3, 16] [µM]	MIC [3, 17] [µM]	MIC [3, 18] [µM]	MIC ([3]; isolate P1, read-out: MIC P1) [µM]	MIC [3, 19] [µM]	MIC [3, 20] [µM]	MIC ([3]; isolate So1, read-out: MIC So1) [µM]	Structure (SMILES)	activity at 25 µM [1, 5] [%]	activity at 25 µM [1, 6] [%]	activity at 25 µM [1, 7] [%]	activity at 25 µM [1, 8] [%]	activity at 100 µM [1, 9] [%]	activity at 100 µM [1, 10] [%]	Percent fungal survival at 100 µM [1] [%]	activity at 100 µM [1, 11] [%]	Drug static or cidal [2]	other results
1.23	0.75	2.6	0.34	0.125 (≈ 0.052 µg/mL)	0.125 (≈ 0.052 µg/mL)	0.25 (≈ 0.104 µg/mL)	0.06 (≈ 0.025 µg/mL)	> 0.03	0.06 (≈ 0.025 µg/mL)	0.125 (≈ 0.052 µg/mL)	Clc1ccc(COC(Cn2ccnc2)c2ccc(Cl)cc2Cl)c(Cl)c1 (stereo not shown) [MMV002722]	1.83	0.653	1.37	3.48	8.62	1.56	6.95	17.4	Cidal	MIC ([3]; isolate i1, read-out: MIC i1): > 0.03 µM; MIC ([3]; isolate i11, read-out: MIC i11): 0.5 µM (≈ 0.208 µg/mL); In vivo efficacy, Enhanced survival compared to control? [4]: no; In vivo efficacy, Larvae survival % [4]: 8.9%
4.26	3.95	4.4	4.42	2 (≈ 1.02 µg/mL)	1 (≈ 0.509 µg/mL)	2 (≈ 1.02 µg/mL)	2 (≈ 1.02 µg/mL)	4 (≈ 2.04 µg/mL)	4 (≈ 2.04 µg/mL)	2 (≈ 1.02 µg/mL)	CCCCC(CC)CNC(=N)NC(=N)NCCCCCCNC(=N)NC(=N)NCC(CC)CCCC (stereo not shown) [MMV396785, Alexidine, reference compound]	1.02	-0.617	1.64	2.05	7.33	-1.99	7.87	16.1	Static	pIC50 [2, 21]: 5.59; pIC50 [2, 22]: 5.59; pIC50 [2, 23]: 5.67; pIC50 [2, 24]: 5.57; pIC50 [2, 25]: 5.55; MIC50 [3, 26]: 2 µM (≈ 1.02 µg/mL); MIC [3, 27]: 2 µM (≈ 1.02 µg/mL); MIC [3, 28]: 2 µM (≈ 1.02 µg/mL); MIC ([3]; isolate i1, read-out: MIC i1): 2 µM (≈ 1.02 µg/mL); MIC ([3]; isolate i11, read-out: MIC i11): 2 µM (≈ 1.02 µg/mL); In vivo efficacy, Enhanced survival compared to control? [4]: no; In vivo efficacy, Larvae survival % [4]: 2.2%
10.7	4.65	22.1	5.4	4 (≈ 1.27 µg/mL)	4 (≈ 1.27 µg/mL)	2 (≈ 0.635 µg/mL)	> 16	0.25 (≈ 0.0794 µg/mL)	16 (≈ 5.08 µg/mL)	2 (≈ 0.635 µg/mL)	CCC(C)(C)c1ccc(CC(C)CN2C[C@@H](C)O[C@@H](C)C2)cc1 (stereo partly shown) [MMV1634358, Amorolfine, reference compound]	0.888	-0.194	0.287	2.57	8.96	0.903	2.35	23.6	Static	pIC50 [2, 21]: 5.24; pIC50 [2, 22]: 5.24; pIC50 [2, 23]: 5.61; pIC50 [2, 24]: 4.93; pIC50 [2, 25]: 5.52; MIC50 [3, 26]: 4 µM (≈ 1.27 µg/mL); MIC [3, 27]: 4 µM (≈ 1.27 µg/mL); MIC [3, 28]: 4 µM (≈ 1.27 µg/mL); MIC ([3]; isolate i1, read-out: MIC i1): 2 µM (≈ 0.635 µg/mL); MIC ([3]; isolate i11, read-out: MIC i11): 16 µM (≈ 5.08 µg/mL); In vivo efficacy, Enhanced survival compared to control? [4]: no; In vivo efficacy, Larvae survival % [4]: 11.1%

Reference: article PMC8815882, “Screening the pandemic response box identified benzimidazole carbamates, Olorofim and ravuconazole as promising drug candidates for the treatment of eumycetoma” (PLoS Neglected Tropical Diseases, 2022)
